# Measurements: patent US6274715A, “Tricyclic erythromycin derivatives” (priority 1997, dated 2001)
# Tests used:
# [1] = tested on: STREPTOCOCCUS PYOGENES PIU 2548; assay: In vitro antibacterial activity, MIC, BHI agar dilution; assay type: cell-based; conditions: S. pyogenes PIU 2548, unit assumed
# [2] = tested on: STAPHYLOCOCCUS AUREUS ATCC 6538P; assay: as above; assay type: cell-based; conditions: S. aureus ATCC 6538P, 35-37° C., 20 to 24 hours, unit assumed
# [3] = tested on: STREPTOCOCCUS PYOGENES 930; assay: as above; assay type: cell-based; conditions: S. pyogenes 930, unit assumed
# [4] = tested on: PSEUDOMONAS AERUGINOSA K799/WT; assay: as above; assay type: cell-based; conditions: P. aeruginosa K799/WT, unit assumed
# [5] = tested on: STAPHYLOCOCCUS AUREUS A5177; assay: as above; assay type: cell-based; conditions: S. aureus A5177, unit assumed
# ESCHERICHIA COLI JUHL = assay type: cell-based; conditions: E. coli JUHL; BHI agar; unit assumed
# [6] = tested on: PSEUDOMONAS AERUGINOSA BMH10; assay: In vitro antibacterial activity, MIC, BHI agar dilution; assay type: cell-based; conditions: P. aeruginosa BMH10, unit assumed
# [7] = tested on: STAPHYLOCOCCUS AUREUS CMX 642A; assay: as above; assay type: cell-based; conditions: S. aureus CMX 642A, unit assumed
# [8] = tested on: KLEBSIELLA PNEUMONIAE ATCC 8045; assay: as above; assay type: cell-based; conditions: K. pneumoniae ATCC 8045, unit assumed
# ESCHERICHIA COLI H560 = assay: as above; assay type: cell-based; conditions: E. coli H560, unit assumed
# ESCHERICHIA COLI DC-2 = assay: as above; assay type: cell-based; conditions: E. coli DC-2, unit assumed
# [9] = tested on: STAPHYLOCOCCUS AUREUS 1775; assay: as above; assay type: cell-based; conditions: S. aureus 1775, unit assumed
# [10] = tested on: ENTEROBACTER AEROGENES ATCC 13048; assay: as above; assay type: cell-based; conditions: E. aerogenes ATCC 13048, unit assumed
# [11] = tested on: STREPTOCOCCUS PYOGENES EES61; assay: as above; assay type: cell-based; conditions: S. pyogenes EES61, unit assumed
# [12] = tested on: STREPTOCOCCUS BOVIS A-5169; assay: as above; assay type: cell-based; conditions: S. bovis A-5169, unit assumed
# [13] = tested on: PROVIDENCIA STUARTII CMX 640; assay type: cell-based; conditions: P. stuartii CMX 640; BHI agar; unit assumed
# [14] = tested on: STAPHYLOCOCCUS AUREUS NCTC10649M; assay: In vitro antibacterial activity, MIC, BHI agar dilution; assay type: cell-based; conditions: S. aureus NCTC10649M, unit assumed
# [15] = tested on: STAPHYLOCOCCUS EPIDERMIDIS 3519; assay type: cell-based; conditions: S. epidermidis 3519; BHI agar; unit assumed
# STR[…] 508 = assay: In vitro antibacterial activity, MIC, BHI agar dilution; assay type: cell-based; conditions: S. agalactiae CMX 508, unit assumed
# Outline: (§1)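 BHI agar dilution: twelve plates with successive compound dilutions, inoculated by replicator with 1:100 culture dilutions (1:10 for slow growers such as Micrococcus and Streptococcus), 20 to 24 hours at 35-37° C. MIC was the lowest concentration giving no growth, slight haze or sparse isolated colonies versus drug-free control; erythromycin A as class reference.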
# M[…] ATCC 9341 = assay: as above; assay type: cell-based; conditions: M. luteus ATCC 9341, unit assumed
# Outline: as §1
# M[…] ATCC 4698 = assay: as above; assay type: cell-based; conditions: M. luteus ATCC 4698, unit assumed
# Outline: as §1
# EN[…] ATCC 8043 = assay: as above; assay type: cell-based; conditions: E. faecium ATCC 8043, unit assumed
# Outline: as §1
# CANDIDA ALBICANS CCH 442 = assay: as above; assay type: cell-based; conditions: C. albicans CCH 442, unit assumed
# [16] = tested on: MYCOBACTERIUM SMEGMATIS ATCC 114; assay: as above; assay type: cell-based; conditions: M. smegmatis ATCC 114, unit assumed
# ESCHERICHIA COLI SS = assay: as above; assay type: cell-based; conditions: E. coli SS, unit assumed
# [17] = tested on: STAPHYLOCOCCUS AUREUS A-5278; assay: as above; assay type: cell-based; conditions: S. aureus A-5278, unit assumed
# [18] = tested on: PSEUDOMONAS AERUGINOSA 5007; assay: as above; assay type: cell-based; conditions: P. aeruginosa 5007, unit assumed
# PSEUDOMONAS CEPACIA 296I = assay: as above; assay type: cell-based; conditions: P. cepacia 296I, unit assumed
# [19] = tested on: PSEUDOMONAS AERUGINOSA DPHD-2862; assay: as above; assay type: cell-based; conditions: P. aeruginosa DPHD-2862, unit assumed
# [20] = tested on: PSEUDOMONAS AERUGINOSA K799/61; assay: as above; assay type: cell-based; conditions: P. aeruginosa K799/61, unit assumed
# H. Influenza Dill AMP R = assay: In vitro antibacterial activity against H. Influenza Dill AMP R, MIC; assay type: cell-based; conditions: separate assay, unit assumed
# Outline: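 Agar dilution in Brain Heart Infusion agar, twelve successive compound dilutions, inoculated by Steers replicator with 1:100 (1:10 for slow growers) culture dilutions. Incubation 35-37° C. for 20 to 24 hours; MIC is lowest concentration giving no growth, slight haze or sparse colonies versus drug-free control.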
# [21] = tested on: PSEUDOMONAS AERUGINOSA DPHD-5263; assay: In vitro antibacterial activity, MIC, BHI agar dilution; assay type: cell-based; conditions: P. aeruginosa DPHD-5263, unit assumed
# ESCHERICHIA COLI KNK 437 = assay type: cell-based; conditions: E. coli KNK 437; BHI agar; unit assumed
# [22] = tested on: STAPHYLOCOCCUS AUREUS CMX 553; assay: In vitro antibacterial activity, MIC, BHI agar dilution; assay type: cell-based; conditions: S. aureus CMX 553, unit assumed
# Grarn-negative bacteria = conditions: background statement; cited from earlier work
# [23] = tested on: ACINETOBACTER CALCOACETICUS CMX 669; assay: In vitro antibacterial activity, MIC, BHI agar dilution; assay type: cell-based; conditions: A. calcoaceticus CMX 669, unit assumed
smiles,measurement,setting,value
"CC[C@H]1OC(=O)[C@H](C)[C@@H](O[C@H]2C[C@@](C)(OC)[C@@H](O)[C@H](C)O2)[C@H](C)[C@@H](O[C@@H]2O[C@H](C)C[C@H](N(C)C)[C@H]2O)[C@](C)(O)C[C@@H](C)C(=O)[C@H](C)[C@@H](O)[C@]1(C)O [Ery A, Erythromycin A, reference compound]",MIC,[1],6.2 µg/mL
same,MIC,[2],0.2 µg/mL
same,MIC,[3],> 100 µg/mL
same,MIC,[4],50 µg/mL
same,MIC,[5],6.2 µg/mL
same,MIC,ESCHERICHIA COLI JUHL,100 µg/mL
same,MIC,[6],> 100 µg/mL
same,MIC,[7],0.39 µg/mL
same,MIC,[8],100 µg/mL
same,MIC,ESCHERICHIA COLI H560,25 µg/mL
same,MIC,ESCHERICHIA COLI DC-2,> 100 µg/mL
same,MIC,[9],> 100 µg/mL
same,MIC,[10],100 µg/mL
same,MIC,[11],0.05 µg/mL
same,MIC,[12],0.05 µg/mL
same,MIC,[13],> 100 µg/mL
same,MIC,[14],0.2 µg/mL
same,MIC,[15],0.39 µg/mL
same,MIC,STR[…] 508,0.05 µg/mL
same,MIC,M[…] ATCC 9341,0.02 µg/mL
same,MIC,M[…] ATCC 4698,0.2 µg/mL
same,MIC,EN[…] ATCC 8043,0.05 µg/mL
same,MIC,CANDIDA ALBICANS CCH 442,> 100 µg/mL
same,MIC,[16],0.02 µg/mL
same,MIC,ESCHERICHIA COLI SS,0.2 µg/mL
same,MIC,[17],> 100 µg/mL
same,MIC,[18],> 100 µg/mL
same,MIC,PSEUDOMONAS CEPACIA 296I,> 100 µg/mL
same,MIC,[19],> 100 µg/mL
same,MIC,[20],0.78 µg/mL
same,MIC,H. Influenza Dill AMP R,4 µg/mL
same,MIC,[21],> 100 µg/mL
same,MIC,ESCHERICHIA COLI KNK 437,50 µg/mL
same,MIC,[22],0.2 µg/mL
same,activity against Gram-negative bacteria,Grarn-negative bacteria,only weak activity
CC[C@H]1OC(=O)[C@H](C)C(=O)[C@H](C)[C@@H](O[C@@H]2O[C@H](C)C[C@H](N(C)C)[C@H]2O)[C@](C)(OC)C[C@@H](C)C2=N[C@H](CCOCc3ccccc3)CN3C(=O)O[C@@]1(C)[C@H]3[C@H]2C [Example 92],MIC,[1],0.39 µg/mL
same,MIC,[2],0.39 µg/mL
same,MIC,[3],100 µg/mL
same,MIC,[4],> 100 µg/mL
same,MIC,[5],0.2 µg/mL
same,MIC,ESCHERICHIA COLI JUHL,> 100 µg/mL
same,MIC,[6],> 100 µg/mL
same,MIC,[7],0.39 µg/mL
same,MIC,[8],> 100 µg/mL
same,MIC,[23],> 100 µg/mL
same,MIC,ESCHERICHIA COLI H560,> 100 µg/mL
same,MIC,ESCHERICHIA COLI DC-2,> 100 µg/mL
same,MIC,[9],> 100 µg/mL
same,MIC,[10],> 100 µg/mL
same,MIC,[11],0.05 µg/mL
same,MIC,[12],0.05 µg/mL
same,MIC,[13],> 100 µg/mL
same,MIC,[14],0.39 µg/mL
same,MIC,[15],0.39 µg/mL
same,MIC,STR[…] 508,0.05 µg/mL
same,MIC,M[…] ATCC 9341,0.05 µg/mL
same,MIC,M[…] ATCC 4698,0.39 µg/mL
same,MIC,EN[…] ATCC 8043,0.1 µg/mL
same,MIC,CANDIDA ALBICANS CCH 442,> 100 µg/mL
same,MIC,[16],1.56 µg/mL
same,MIC,ESCHERICHIA COLI SS,1.56 µg/mL
same,MIC,[17],> 100 µg/mL
same,MIC,[18],> 100 µg/mL
same,MIC,PSEUDOMONAS CEPACIA 296I,> 100 µg/mL
same,MIC,[19],> 100 µg/mL
same,MIC,[20],6.2 µg/mL
same,MIC,H. Influenza Dill AMP R,32 µg/mL
same,MIC,[21],> 100 µg/mL
same,MIC,ESCHERICHIA COLI KNK 437,> 100 µg/mL
same,MIC,[22],0.39 µg/mL
